Results taken from patent publication US8618289B2 (Ambit Biosciences Corporation, priority 2008, dated 2013).
pEC50, pIC50, pKd: −log10 of the molar value. Structures can show the parent of a compound that is named as a salt.

Legend:
[1] = system: MEK1 phosphorylation in the A375 human melanoma cell line; assay: cells; details: A-375, read-out: pMEK IC50
A375 cells = assay: cells; details: Homo sapiens, A-375, read-out: A375 Viability EC50
RAF kinases [2] = biological target: RAF kinases (Homo sapiens, UniProt P04049); assay: biochemical
RAF kinases [3] = biological target: RAF kinases (Homo sapiens, UniProt P15056); assay: biochemical
RAF kinases (Homo sapiens, UniProt P15056), sequence (P15056 whole entry): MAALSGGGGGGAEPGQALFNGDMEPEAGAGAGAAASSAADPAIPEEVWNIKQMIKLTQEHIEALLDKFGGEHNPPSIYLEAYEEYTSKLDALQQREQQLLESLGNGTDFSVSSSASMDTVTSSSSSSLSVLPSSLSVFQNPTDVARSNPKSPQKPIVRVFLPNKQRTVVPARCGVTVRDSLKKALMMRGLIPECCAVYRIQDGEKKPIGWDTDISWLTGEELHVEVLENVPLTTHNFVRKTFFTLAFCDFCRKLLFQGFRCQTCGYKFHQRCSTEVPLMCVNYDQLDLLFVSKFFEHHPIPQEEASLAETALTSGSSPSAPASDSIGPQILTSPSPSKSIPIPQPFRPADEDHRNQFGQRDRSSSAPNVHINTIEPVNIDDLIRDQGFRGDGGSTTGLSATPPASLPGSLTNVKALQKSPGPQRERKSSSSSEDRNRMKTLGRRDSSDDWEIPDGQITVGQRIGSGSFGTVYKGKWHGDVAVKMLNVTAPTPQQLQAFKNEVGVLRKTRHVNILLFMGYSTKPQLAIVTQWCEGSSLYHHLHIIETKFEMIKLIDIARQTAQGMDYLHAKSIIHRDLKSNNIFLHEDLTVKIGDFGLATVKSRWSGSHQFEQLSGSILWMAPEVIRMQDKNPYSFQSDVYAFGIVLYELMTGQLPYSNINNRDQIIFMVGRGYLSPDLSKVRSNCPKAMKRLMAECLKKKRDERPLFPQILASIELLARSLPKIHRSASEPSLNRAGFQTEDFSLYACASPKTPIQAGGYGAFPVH

RAF kinases (Homo sapiens, UniProt P04049), sequence (P04049 whole entry): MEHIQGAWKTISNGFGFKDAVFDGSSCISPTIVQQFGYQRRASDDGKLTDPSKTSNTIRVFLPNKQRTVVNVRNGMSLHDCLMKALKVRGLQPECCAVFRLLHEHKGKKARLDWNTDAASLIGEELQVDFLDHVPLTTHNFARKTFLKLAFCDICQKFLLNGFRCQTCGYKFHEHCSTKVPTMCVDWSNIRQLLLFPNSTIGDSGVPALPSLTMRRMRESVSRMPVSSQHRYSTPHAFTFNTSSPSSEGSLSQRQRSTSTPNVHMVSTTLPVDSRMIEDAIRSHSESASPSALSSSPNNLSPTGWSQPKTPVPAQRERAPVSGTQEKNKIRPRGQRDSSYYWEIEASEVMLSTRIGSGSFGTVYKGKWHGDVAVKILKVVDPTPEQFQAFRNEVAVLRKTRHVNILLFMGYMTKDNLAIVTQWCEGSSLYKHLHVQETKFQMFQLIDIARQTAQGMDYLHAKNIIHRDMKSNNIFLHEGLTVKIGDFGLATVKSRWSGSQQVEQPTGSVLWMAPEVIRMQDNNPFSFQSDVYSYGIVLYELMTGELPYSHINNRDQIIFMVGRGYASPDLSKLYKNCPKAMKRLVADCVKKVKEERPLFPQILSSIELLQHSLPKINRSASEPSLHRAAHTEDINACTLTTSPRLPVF

Row | Compound | pIC50 [1] | pEC50 (A375 cells) | pKd (RAF kinases [2]) | pKd (RAF kinases [3])
1 | CC(C)(C)c1cc(NC(=O)Nc2cccc(Sc3ncnc4ccc(OCCCN5CCS(=O)(=O)CC5)cc34)c2)no1 [Ex 90, 1-(5-tert-butyl-isoxazol-3-yl)-3-(3-{6-[3-(1,1-dioxo-thiomorpholin-4-yl)-propoxy]-quinazolin-4-ylsulfanyl}-phenyl)-urea] | > 6.60 | < 6.00 | 6.30 to 6.60 | 6.00 to 6.30
2 | COc1cc2ncnc(Sc3cccc(NC(=O)Nc4cc(C(C)(C)C)on4)c3)c2cc1OCCCN1CCN(S(C)(=O)=O)CC1 [Ex 60, 1-(5-tert-butylisoxazol-3-yl)-3-(3-(7-methoxy-6-(3-(4-(methylsulfonyl)piperazin-1-yl)propoxy)quinazolin-4-ylthio)phenyl) urea] | > 6.60 | 6.30 to 6.60 | 6.30 to 6.60 | 6.00 to 6.30
3 | COCCOc1cc2ncnc(Oc3cccc(NC(=O)Nc4cc(C(C)(C)C)on4)c3)c2cc1OC [Ex 7, 1-(5-tert-Butylisoxazol-3-yl)-3-{3-[6-methoxy-7-(2-methoxyethoxy)quinazolin-4-yloxy]phenyl}urea hydrochloride] | > 6.60 | 6.30 to 6.60 | 6.30 to 6.60 | 6.30 to 6.60
4 | COCCOc1cc2ncnc(Sc3cccc(NC(=O)Nc4cc(C(C)(C)C)on4)c3)c2cc1OC [Ex 52, 1-(5-tert-butylisoxazol-3-yl)-3-{3-[6-methoxy-7-(2-methoxyethoxy)quinazolin-4-ylthio]phenyl}urea hydrochloride] | > 6.60 | 6.00 to 6.30 | 6.30 to 6.60 | 6.30 to 6.60
5 | COc1cc2ncnc(Oc3cccc(NC(=O)Nc4ccc(C(C)(C)C)cc4)c3)c2cc1OC [Ex 173, 1-(4-tert-butylphenyl)-3-(3-(6,7-dimethoxyquinazolin-4-yloxy)phenyl)urea] | 6.30 to 6.60 | < 6.00 | 6.30 to 6.60 | 6.00 to 6.30
6 | CC(C)(C)c1cc(NC(=O)Nc2cccc(Oc3ncnc4cc5c(cc34)OCCO5)c2)no1 [Ex 14, 1-(5-tert-butylisoxazol-3-yl)-3-[3-(7,8-dihydro-[1,4]dioxino[2,3-g]quinazolin-4-yloxy)phenyl]urea hydrochloride] | 6.00 to 6.30 | < 6.00 | 6.30 to 6.60 | 6.00 to 6.30
7 | COCCOc1cc2ncnc(Oc3cccc(NC(=O)Nc4cccc(C(C)(C)C)c4)c3)c2cc1OC [Ex 119, 1-(3-tert-butylphenyl)-3-(3-(6-methoxy-7-(2-methoxyethoxy)quinazolin-4-yloxy)phenyl)urea] | 6.30 to 6.60 | < 6.00 | 6.30 to 6.60 | 6.30 to 6.60
8 | COc1cc2ncnc(Oc3cccc(NC(=O)Nc4cc(C(C)(F)F)no4)c3)c2cc1OC [Ex 152, 1-(3-(1,1-difluoroethyl)isoxazol-5-yl)-3-(3-(6,7-dimethoxyquinazolin-4-yloxy)phenyl)urea] | 6.00 to 6.30 | 6.00 to 6.30 | 6.30 to 6.60 | 6.30 to 6.60
9 | COc1cc2c(Oc3cccc(NC(=O)Nc4cc(C(C)(C)C)on4)c3)ncnc2cc1OCCN1CCS(=O)(=O)CC1 [Ex 39, 1-(5-tert-butyl-isoxazol-3-yl)-3-(3-{7-[2-(1,1-dioxo-116-thiomorpholin-4-yl)-ethoxy]-6-methoxy-quinazolin-4-yloxy}-phenyl)-urea] | > 6.60 | > 6.60 | 6.30 to 6.60 | 6.30 to 6.60
10 | COc1cc2ncnc(Sc3cccc(NC(=O)Nc4cc(C(C)(C)C)nn4C)c3)c2cc1OC [Ex 157, 1-(3-tert-butyl-1-methyl-1H-pyrazol-5-yl)-3-(3-(6,7-dimethoxyquinazolin-4-ylthio)phenyl)urea] | > 6.60 | < 6.00 | 6.30 to 6.60 | 6.00 to 6.30
11 | COc1cc2ncnc(Sc3cccc(NC(=O)Nc4cc(C(C)(C)C)on4)c3)c2cc1OCCN1CCC(CO)CC1 [Ex 66, 1-(5-tert-butylisoxazol-3-yl)-3-(3-(6-(2-(4-(hydroxymethyl)piperidin-1-yl)ethoxy)-7-methoxyquinazolin-4-ylthio)phenyl)urea] | > 6.60 | < 6.00 | 6.00 to 6.30 | 6.00 to 6.30
12 | COc1cc2ncnc(Sc3cccc(NC(=O)Nc4cc(C(C)(C)C)on4)c3)c2cc1OCCCN1CCN(C)CC1 [Ex 59, 1-(5-tert-butylisoxazol-3-yl)-3-(3-(7-methoxy-6-(3-(4-methylpiperazin-1-yl)propoxy)quinazolin-4-ylthio)phenyl)urea] | > 6.60 | < 6.00 | 6.30 to 6.60 | 6.30 to 6.60
13 | COc1cccc(NC(=O)Nc2cccc(Oc3ncnc4cc(OC)c(OC)cc34)c2)c1 [Ex 178, 1-(3-(6,7-dimethoxyquinazolin-4-yloxy)phenyl)-3-(3-methoxyphenyl)urea] | < 6.00 | < 6.00 | 6.30 to 6.60 | 6.00 to 6.30
14 | COc1cc2ncnc(Oc3cccc(NC(=O)Nc4cc(C(C)(C)C)on4)c3)c2cc1OCCN1CCN(CCO)CC1 [Ex 19, 1-(5-tert-butylisoxazol-3-yl)-3-(3-(6-(2-(4-(2-hydroxyethyl)piperazin-1-yl)ethoxy)-7-methoxyquinazolin-4-yloxy)phenyl)urea] | > 6.60 | 6.30 to 6.60 | 6.30 to 6.60 | 6.30 to 6.60
15 | COc1cc2c(Oc3cccc(NC(=O)Nc4cc(C(C)(C)C)on4)c3)ncnc2cc1OCCCN1CC[C@@H](O)C1 [Ex 34, (R)-1-(5-tert-Butylisoxazol-3-yl)-3-(3-(7-(3-(3-hydroxypyrrolidin-1-yl)propoxy)-6-methoxyquinazolin-4-yloxy)phenyl)urea] | > 6.60 | < 6.00 | 6.30 to 6.60 | 6.30 to 6.60
16 | COc1cc2c(Sc3cccc(NC(=O)Nc4cc(C(C)(C)C)on4)c3)ncnc2cc1OCCN1CCOCC1 [Ex 79, 1-(5-tert-butylisoxazol-3-yl)-3-(3-(6-methoxy-7-(2-morpholinoethoxy)quinazolin-4-ylthio)phenyl)urea] | > 6.60 | < 6.00 | 6.00 to 6.30 | 6.00 to 6.30
17 | COc1cc2ncnc(Oc3cccc(NC(=O)Nc4cc(C(C)(C)C)on4)c3)c2cc1OCCCN1CCCCC1 [Ex 23, 1-(5-tert-butylisoxazol-3-yl)-3-(3-(7-methoxy-6-(3-(piperidin-1-yl)propoxy)quinazolin-4-yloxy)phenyl)urea] | > 6.60 | 6.00 to 6.30 | 6.00 to 6.30 | 6.00 to 6.30
18 | COc1cc2ncnc(Sc3cccc(NC(=O)Nc4cc(C(C)(C)C)on4)c3)c2cc1OCCCN1CCC(CO)CC1 [Ex 58, 1-(5-tert-butylisoxazol-3-yl)-3-(3-(6-(3-(4-(hydroxymethyl)piperidin-1-yl)propoxy)-7-methoxyquinazolin-4-ylthio)phenyl)urea] | > 6.60 | < 6.00 | 6.00 to 6.30 | 6.30 to 6.60
19 | COc1cc2ncnc(Sc3cccc(NC(=O)Nc4cc(C(C)(C)C)on4)c3)c2cc1OC [Ex 46, 1-(5-tert-butylisoxazol-3-yl)-3-(3-(6,7-dimethoxyquinazolin-4-ylthio)phenyl)urea] | > 6.60 | 6.30 to 6.60 | 6.30 to 6.60 | 6.00 to 6.30
20 | COc1cc2c(Sc3cccc(NC(=O)Nc4cc(C(C)(C)C)on4)c3)ncnc2cc1OCCCN1CCN(S(C)(=O)=O)CC1 [Ex 77, 1-(5-tert-butylisoxazol-3-yl)-3-(3-(6-methoxy-7-(3-(4-(methylsulfonyl)piperazin-1-yl)propoxy)quinazolin-4-ylthio)phenyl)urea] | > 6.60 | 6.30 to 6.60 | 6.00 to 6.30 | 6.00 to 6.30
